Assay results reported in patent publication US7390836B2, “Small molecules used to increase cell death” (priority 1999, dated 2008).
Where two headings read alike, the source gives them in different places.

Legend:
Format in all cases: cell-based
Jurkat cells = experiment: Cytotoxicity by MTS assay and propidium iodide uptake
Method: Since BH3Is induce apoptosis, their mode of action, for example, through disruption of BH3 domain interactions, was investigated next. If apoptosis induced by a BH3I is BH3-dependent, then cytotoxicity should correlate with the compound's ability to disrupt BH3 domain interactions in vitro. To examine this possibility, Jurkat cells were treated with the BH3 Is and the occurrence of cell death was assayed by the MTS assay and propidium iodide (PI) uptake (FIG. 7A). The cytotoxicity of BH3-Is followed the order of BH3I-2′>BH3I-2>BH3I-2″>BH3I-1>BH3I-1′>BH3I-1″>BH3I-1′″ which paralleled the order of their Ki values determined using in vitro Bcl-xL binding assays (FIGS. 7B and 7C). Similar data were obtained using a trypan blue exclusion assay.

[1] = molecular target: T1, Bcl-xL/Bax heterodimerization in 293 cells (Homo sapiens, UniProt Q07817); experiment: FRET between Bcl-xL-CFP and Bax-YFP in intact cells; details: rank order; for order of relative effects on YFP fluorescence reduction: rough index of cell death
T1 construct: expressed in transfected cells; host or cells: 293 cells
T1 sequence (Q07817 whole entry, one chain of several): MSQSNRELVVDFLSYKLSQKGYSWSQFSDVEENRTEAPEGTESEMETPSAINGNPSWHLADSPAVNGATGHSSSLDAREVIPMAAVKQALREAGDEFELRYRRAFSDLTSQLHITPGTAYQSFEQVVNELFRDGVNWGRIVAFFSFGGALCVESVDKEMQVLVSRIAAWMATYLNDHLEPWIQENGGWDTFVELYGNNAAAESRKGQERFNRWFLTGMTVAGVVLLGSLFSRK
Description: The effect of the BH3Is on the disruption of the heterodimerization of Bcl-2 family proteins in vivo was next determined. Dimerization of Bcl-2 in immunoprecipitation experiments may represent post-lysis events induced by detergents (Hsu et al., J. Biol. Chem. 272:13829-34, 1997). Therefore, these studies focused on assaying the Bcl-xL dimerization status in intact cells. Recently, the interaction between Bax and Bcl-2 has been studied in intact living cells by fluorescent resonance energy transfer measurements between GFP fusion proteins (Mahajan et al., Nat. Biotechnol. 16:547-52, 1998). This approach was used to monitor the effects of BH3Is on Bcl-xL/Bax heterodimerization in intact cells.
293 cells were transfected with Bcl-xL-CFP and Bax-YFP expression vectors using Lipofectamine Plus (Gibco) or TransLT-1 (PanVera) and 24 hr later were treated with BH3Is. Cells were harvested in PBS supplemented with BH3Is, and fluorescence was determined using a C-60 fluorimeter (PTI) or a Wallac platereader. Fluorescence in the samples separately overexpressing Bax and Bcl-xL was added together and used to estimate the FRET value in the absence of dimerization. The extent of FRET between CFP and YFP was determined as a ratio of fluorescence at 527 nm vs. 475 nm after excitation at 433 nm.

[2] = molecular target: T2, Bad-GFP with Bcl-2 or Bcl-xL in BSC-1 cells (Homo sapiens, UniProt Q07817); experiment: Bad-GFP localization in intact cells; details: for mitochondrial targeting and heterodimerization of Bad-GFP: BH3I-1 100 μM, BH3I-2 50 μM, 6 hr, 100 μM zVAD; for order of activities, Bad-GFP localization: rank order
T2 construct: expressed in transfected cells; host or cells: BSC-1 cells
T2 sequence (Q07817 whole entry): as the sequence (Q07817 whole entry, one chain of several) above
Method: Bad is a pro-apoptotic member of the Bcl-2 family, whose apoptosis-promoting activity and mitochondrial targeting depends on heterodimerization with anti-apoptotic Bcl-2 family members (Zha et al., Cell 87, 619-28, 1996). To examine the effects of BH3Is on Bad localization, BSC-1 cells were transfected with 5 μg of Bad-GFP expression vector alone (FIG. 8D, panels 1 […]) or were co-transfected with 5 μg of Bad-GFP and 5 μg of Bcl-xL-T7 (FIG. 8D, panels 2-5). Twenty four hours after transfection, cells were treated with BH3I-1 (100 μM; FIG. 8D, panel 4) or BH3I-2 (50 μM; FIG. 8D, panel 5) for 6 hr. In order to determine mitochondrial localization, cells were pre-stained with MitoTracker Red CMXRos for 30 min prior to fixation (FIG. 8D, panel 2). All cells in this study were pretreated with 100 μM zVAD to decrease the detrimental effects of overexpression of proapoptotic Bcl-2 proteins on cell viability.
BH3Is disrupted the mitochondrial association of Bad, but not Bcl-xL, after in vitro treatment of the mitochondria isolated from 293 cells co-transfected with Bad and Bcl-xL (FIG. 8C). The relative activities of the BH3Is in this assay (BH3I-2>BH3I-1>BH3I-1″) were consistent with the previous results. […] Again, the order of the activities in these assays was BH3I-2>BH3I-1>BH3I-1″.

[3] = MTS assay and PI uptake, rank order

Compound: CC(C)C(C(=O)O)N1C(=O)C(=Cc2ccc(Br)cc2)SC1=S (stereo in doubt) [BH3I-1]
- order of cytotoxicity (Jurkat cells; [3]): BH3I-2′>BH3I-2>BH3I-2″>BH3I-1>BH3I-1′>BH3I-1″>BH3I-1′″
- order of changes in the FRET ratio [1]: BH3I-2>BH3I-1>BH3I-1″
- order of relative effects on YFP fluorescence reduction [1]: BH3I-2>BH3I-I>BH3I-1″
- mitochondrial targeting and heterodimerization of Bad-GFP [2]: efficiently disrupted mitochondrial targeting and heterodimerization of Bad-GFP
- order of activities, Bad-GFP localization [2]: BH3I-2>BH3I-1>BH3I-1″

Compound: CC(C)C(C(=O)O)N1C(=O)/C(=C/c2ccccc2)SC1=S (centres unmarked) [BH3I-1″]
- order of cytotoxicity (Jurkat cells): BH3I-2′>BH3I-2>BH3I-2″>BH3I-1>BH3I-1′>BH3I-1″>BH3I-1′″
- order of changes in the FRET ratio [1]: BH3I-2>BH3I-1>BH3I-1″
- order of relative effects on YFP fluorescence reduction [1]: BH3I-2>BH3I-I>BH3I-1″
- order of activities, Bad-GFP localization [2]: BH3I-2>BH3I-1>BH3I-1″

Compound: O=C(Nc1cc(S(=O)(=O)c2ccc(Cl)cc2)ccc1Cl)c1cc(Cl)cc(Br)c1O [BH3I-2]
- order of cytotoxicity (Jurkat cells; [3]): BH3I-2′>BH3I-2>BH3I-2″>BH3I-1>BH3I-1′>BH3I-1″>BH3I-1′″
- order of changes in the FRET ratio [1]: BH3I-2>BH3I-1>BH3I-1″
- order of relative effects on YFP fluorescence reduction [1]: BH3I-2>BH3I-I>BH3I-1″
- mitochondrial targeting and heterodimerization of Bad-GFP [2]: efficiently disrupted mitochondrial targeting and heterodimerization of Bad-GFP
- order of activities, Bad-GFP localization [2]: BH3I-2>BH3I-1>BH3I-1″
